Laboratory results published in ChEMBL document CHEMBL1135126, “Identification of novel antifungal nonapeptides through the screening of combinatorial peptide libraries based on a hexapeptide motif” (Bioorg Med Chem Lett, 2002).
In brackets after ≈: the same amount, converted by molar mass.

Tests used:
Candida albicans = test: Concentration that substantially inhibit growth of Candida albicans; format: functional, organism-based
Cryptococcus neoformans = test: Concentration that substantially inhibit the growth of Cryptococcus neoformans; format: functional

| MIC (Cryptococcus neoformans) [µM] | Compound | IC50 (Candida albicans) [nM] |
| --- | --- | --- |
| 2.39 (≈ 3.11 µg/mL) | CC[C@H](C)[C@H](NC(=O)[C@@H](Cc1ccccc1)NC(=O)[C@@H](Cc1c[nH]c2ccccc12)NC(=O)[C@@H](N)CCCN=C(N)N)C(=O)N[C@H](Cc1ccccc1)C(=O)N[C@@H](Cc1c[nH]cn1)C(=O)N[C@@H](CCCCN)C(=O)N[C@@H](CCCN=C(N)N)C(=O)N[C@@H](CC(C)C)C(N)=O | 4370 |
| 2.4 (≈ 3.06 µg/mL) | CC[C@H](C)[C@H](NC(=O)[C@@H](Cc1ccccc1)NC(=O)[C@@H](Cc1c[nH]c2ccccc12)NC(=O)[C@@H](N)CCCN=C(N)N)C(=O)N[C@H](Cc1ccccc1)C(=O)N[C@@H](Cc1c[nH]cn1)C(=O)N[C@@H](CCCCN)C(=O)N[C@@H](CCCCN)C(=O)N[C@@H](CC(C)C)C(N)=O | 2180 |
| 4.84 (≈ 6.24 µg/mL) | CC[C@H](C)[C@H](NC(=O)[C@@H](Cc1ccccc1)NC(=O)[C@@H](Cc1c[nH]c2ccccc12)NC(=O)[C@@H](N)CCCN=C(N)N)C(=O)N[C@H](Cc1ccccc1)C(=O)N[C@@H](Cc1c[nH]cn1)C(=O)N[C@@H](CCCCN)C(=O)N[C@@H](CCCN=C(N)N)C(=O)N[C@H](C(N)=O)[C@@H](C)O | 5970 |
| 1.14 (≈ 1.54 µg/mL) | CC[C@H](C)[C@H](NC(=O)[C@@H](Cc1ccccc1)NC(=O)[C@@H](Cc1c[nH]c2ccccc12)NC(=O)[C@@H](N)CCCN=C(N)N)C(=O)N[C@H](Cc1ccccc1)C(=O)N[C@@H](Cc1c[nH]cn1)C(=O)N[C@@H](CCCCN)C(=O)N[C@@H](CCCCN)C(=O)N[C@@H](Cc1c[nH]c2ccccc12)C(N)=O | 2610 |
| 2.37 (≈ 3.05 µg/mL) | CC[C@H](C)[C@H](NC(=O)[C@@H](Cc1ccccc1)NC(=O)[C@@H](Cc1c[nH]c2ccccc12)NC(=O)[C@@H](N)CCCN=C(N)N)C(=O)N[C@H](Cc1ccccc1)C(=O)N[C@@H](Cc1c[nH]cn1)C(=O)N[C@@H](CCCCN)C(=O)N[C@@H](CCCCN)C(=O)N[C@@H](CCCCN)C(N)=O | 1830 |
| 2.37 (≈ 3.06 µg/mL) | CC[C@H](C)[C@H](NC(=O)[C@@H](Cc1ccccc1)NC(=O)[C@@H](Cc1c[nH]c2ccccc12)NC(=O)[C@@H](N)CCCN=C(N)N)C(=O)N[C@H](Cc1ccccc1)C(=O)N[C@@H](Cc1c[nH]cn1)C(=O)N[C@@H](CCCCN)C(=O)N[C@@H](CCCCN)C(=O)N[C@@H](CCSC)C(N)=O | 2620 |
